Laboratory results as given in the supplement of paper PMC11061612.

Assays:
Assay in all cases: Bliss excess, mean over the matrix (fraction); higher = more synergy
[1] = test system: HSC-4 (Oral Cavity Carcinoma)
Method in brief: (§1)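 After 24 hours at 37°C and 5% CO2 in 1536-well plates, cells in DMEM/F12 or RPMI plus 10% FBS received two-drug dose matrices for 72 hours. Viability came from CellTiter-Glo 2.0 luminescence and was scaled as inhibition, anchored at 0 by vehicle wells and at 1 by blank wells. Combination Emax is taken as the second-highest inhibition in the matrix, and Bliss excess as the observed combination effect less EA + EB − EA·EB, with EA and EB the single-agent effects.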

[2] = test system: Caov-4 (Ovarian Carcinoma)
Method in brief: as §1

[3] = test system: NEC8 (Other Solid Carcinomas)
Method in brief: as §1

[4] = test system: D-263MG (Glioblastoma)
Method in brief: as §1

[5] = test system: MLMA (Other Blood Carcinomas)
Method in brief: as §1

[6] = test system: Hs-766T (Pancreatic Carcinoma)
Method in brief: as §1

[7] = test system: C-4-I (Cervical Carcinoma)
Method in brief: as §1

[8] = test system: YH-13 (Glioblastoma)
Method in brief: as §1

[9] = test system: OVCAR-4 (Ovarian Carcinoma)
Method in brief: as §1

[10] = test system: NCI-H1915 (Non-Small Cell Lung Carcinoma)
Method in brief: as §1

[11] = test system: EoL-1-cell (Acute Myeloid Leukemia)
Method in brief: as §1

[12] = test system: NUGC-3 (Gastric Carcinoma)
Method in brief: as §1

[13] = test system: PANC-04-03 (Pancreatic Carcinoma)
Method in brief: as §1

[14] = test system: OSC-20 (Oral Cavity Carcinoma)
Method in brief: as §1

[15] = test system: VA-ES-BJ (Other Solid Carcinomas)
Method in brief: as §1

[16] = test system: TE-1 (Esophageal Squamous Cell Carcinoma)
Method in brief: as §1

[17] = test system: LU-65 (Non-Small Cell Lung Carcinoma)
Method in brief: as §1

[18] = test system: SCC-15 (Oral Cavity Carcinoma)
Method in brief: as §1

[19] = test system: ACHN (Kidney Carcinoma)
Method in brief: as §1

[20] = test system: AMO-1 (Plasma Cell Myeloma)
Method in brief: as §1

| Structure (SMILES) | Bliss excess [1] | Bliss excess [2] | Bliss excess [3] | Bliss excess [4] | Bliss excess [5] | Bliss excess [6] | Bliss excess [7] | Bliss excess [8] | Bliss excess [9] | Bliss excess [10] | Bliss excess [11] | Bliss excess [12] | Bliss excess [13] | Bliss excess [14] | Bliss excess [15] | Bliss excess [16] | Bliss excess [17] | Bliss excess [18] | Bliss excess [19] | Bliss excess [20] |
| --- | --- | --- | --- | --- | --- | --- | --- | --- | --- | --- | --- | --- | --- | --- | --- | --- | --- | --- | --- | --- |
| CN(C)CCCOc1ccc(-c2ccc3ncc4c(c3c2)n(C2CCOCC2)c(=O)n4C)cn1 [AZD0156] + O=C(c1cc(Cc2n[nH]c(=O)c3ccccc23)ccc1F)N1CCN(C(=O)C2CC2)CC1 [Olaparib] (first compound max 3 µM, partner max 3 µM) | 0.0226 | -0.0431 | 0.104 | 0.0132 | 0.0255 | -0.0741 | 0.0867 | 0.067 | -0.0137 | 0.0032 | 0.237 | 0.0093 | 0.0481 | 0.0433 | -0.0267 | -0.0185 | 0.0033 | 0.067 | 0.0728 | 0.0066 |
| CN(C)CCCOc1ccc(-c2ccc3ncc4c(c3c2)n(C2CCOCC2)c(=O)n4C)cn1 [AZD0156] + CCN(CCO)CCCOc1ccc2c(Nc3cc(CC(=O)Nc4cccc(F)c4)[nH]n3)ncnc2c1 [AZD2811] (first compound max 1 µM, 7x7, partner max 1 µM) | -0.0348 | 0.005 | 0.0233 | -0.0339 | -0.0431 | -0.0411 | -0.0074 | -0.0119 | -0.0148 | 0.0174 | -0.0696 | 0.0312 | -0.0644 | 0.0224 | 0.0248 | -0.0016 | 0.0441 | -0.0458 | -0.0232 | 0.0053 |
| CC1(C)CCC(CN2CCN(c3ccc(C(=O)NS(=O)(=O)c4ccc(NCC5CCOCC5)c([N+](=O)[O-])c4)c(Oc4cnc5[nH]ccc5c4)c3)CC2)=C(c2ccc(Cl)cc2)C1 [Venetoclax] + CS(=O)(=O)CCNCc1ccc(-c2ccc3ncnc(Nc4ccc(OCc5cccc(F)c5)c(Cl)c4)c3c2)o1 [Lapatinib] (first compound max 1 µM, 7x7, partner max 10 µM) |  | -0.0353 |  | -0.0669 | -0.0329 | -0.0636 |  | -0.04 |  |  | 0.0351 |  | -0.0396 |  |  |  | 0.0159 |  | -0.0198 | 0.0614 |
| CCc1c2c(nc3ccc(O)cc13)-c1cc3c(c(=O)n1C2)COC(=O)[C@]3(O)CC [SN-38] + O=C(c1cc(Cc2n[nH]c(=O)c3ccccc23)ccc1F)N1CCN(C(=O)C2CC2)CC1 [Olaparib] (first compound max 0.3 µM, 7x7, partner max 10 µM) |  | 0.0748 | 0.0473 | 0.0617 | 0.038 | 0 | 0.055 | 0.0927 | -0.0234 |  | 0.135 |  | 0.0215 | -0.0034 | -0.0117 |  | 0.0282 |  | 0.0198 | 0.0023 |
| CS(=O)(=O)CCNCc1ccc(-c2ccc3ncnc(Nc4ccc(OCc5cccc(F)c5)c(Cl)c4)c3c2)o1 [Lapatinib] + Cn1cnc2c(F)c(Nc3ccc(Br)cc3Cl)c(C(=O)NOCCO)cc21 [Selumetinib] (first compound max 10 µM, 7x7, partner max 10 µM) |  | 0.0493 |  | -0.0859 | 0.0059 | -0.0652 |  | -0.0095 |  |  | -0.038 |  | 0.0145 |  |  |  | -0.0113 |  | 0.0251 | 0.0408 |
| Cc1c2c(nn1C)CSCc1cc(n(C)n1)CSc1cc(c3ccccc3c1)OCCCc1c(C(=O)O)n(C)c3c-2c(Cl)ccc13 [AZD5991] + CC(=O)O[C@H]1C(=O)[C@@]2(C)[C@H]([C@H](OC(=O)c3ccccc3)[C@]3(O)C[C@H](OC(=O)[C@H](O)[C@@H](NC(=O)c4ccccc4)c4ccccc4)C(C)=C1C3(C)C)[C@]1(OC(C)=O)CO[C@@H]1C[C@@H]2O [Paclitaxel] (first compound max 1 µM, 7x7, partner max 3 µM) |  | 0.0995 |  | 0.206 | -0.0803 | -0.0539 |  | 0.0246 |  |  | -0.0041 |  | 0.0111 |  |  |  | -0.0944 |  | -0.0038 | 0.0096 |
| C=CCn1c(=O)c2cnc(Nc3ccc(N4CCN(C)CC4)cc3)nc2n1-c1cccc(C(C)(C)O)n1 [AZD1775] + Nc1ccn([C@@H]2O[C@H](CO)[C@@H](O)C2(F)F)c(=O)n1 [Gemcitabine] (first compound max 1 µM, partner max 0.3 µM) |  | 0 |  | 0.0297 | -0.0797 | -0.0742 |  | 0.0208 |  |  | 0.0391 |  | -0.0346 |  |  |  | -0.0081 |  | -0.0338 | 0.157 |
| CS(=O)(=O)CCNCc1ccc(-c2ccc3ncnc(Nc4ccc(OCc5cccc(F)c5)c(Cl)c4)c3c2)o1 [Lapatinib] + NC1(c2ccc(-c3nc4ccn5c(=O)[nH]nc5c4cc3-c3ccccc3)cc2)CCC1 [MK-2206] (first compound max 10 µM, 7x7, partner max 10 µM) | 0.0003 | -0.05 |  | -0.0222 | -0.093 | -0.0629 |  | -0.0154 |  |  | 0.0098 | 0.0527 | 0.0116 |  |  |  | 0.0099 |  | 0.0221 | -0.048 |
| O=C(c1cc(Cc2n[nH]c(=O)c3ccccc23)ccc1F)N1CCN(C(=O)C2CC2)CC1 [Olaparib] + CN(CC[C@H](CSC1=CC=CC=C1)NC2=C(C=C(C=C2)S(=O)(=O)NC(=O)C3=CC=C(C=C3)N4CCC(CC4)[C@H](C5=CC=CC=C5C6=CC=C(C=C6)Cl)O)S(=O)(=O)C(F)(F)F)CCO [AZD4320] (first compound max 10 µM, 7x7, partner max 1 µM) |  | -0.0392 |  | -0.0672 | -0.0619 | -0.0976 |  | 0.0012 |  |  | 0.0717 |  | -0.0555 |  |  |  | -0.0739 |  | -0.0164 | -0.0111 |
| Cc1c2c(nn1C)CSCc1cc(n(C)n1)CSc1cc(c3ccccc3c1)OCCCc1c(C(=O)O)n(C)c3c-2c(Cl)ccc13 [AZD5991] + CC1(C)CCC(CN2CCN(c3ccc(C(=O)NS(=O)(=O)c4ccc(NCC5CCOCC5)c([N+](=O)[O-])c4)c(Oc4cnc5[nH]ccc5c4)c3)CC2)=C(c2ccc(Cl)cc2)C1 [Venetoclax] (first compound max 1 µM, 7x7, partner max 1 µM) | -0.0498 | -0.0137 | 0.0396 | -0.0036 | -0.0034 | -0.132 | -0.0019 | -0.0433 | 0.0108 | -0.0211 | 0.167 | -0.0125 | -0.0381 | -0.0059 | -0.0429 |  | -0.0487 | -0.0341 | 0.0156 | 0.0456 |
| Cc1c2c(nn1C)CSCc1cc(n(C)n1)CSc1cc(c3ccccc3c1)OCCCc1c(C(=O)O)n(C)c3c-2c(Cl)ccc13 [AZD5991] + C=CCn1c(=O)c2cnc(Nc3ccc(N4CCN(C)CC4)cc3)nc2n1-c1cccc(C(C)(C)O)n1 [AZD1775] (first compound max 1 µM, partner max 1 µM) | -0.0805 | -0.0345 | -0.0089 | -0.0168 | -0.0326 | 0.0172 | 0.0267 | -0.0275 | 0.0117 | -0.0552 | 0.0097 | -0.0088 |  | -0.0115 | 0.0475 | -0.0456 | -0.118 | -0.0365 | -0.0085 | -0.0189 |
| C[C@@H]1COCCN1c1cc(C2([S@](C)(=N)=O)CC2)nc(-c2ccnc3[nH]ccc23)n1 [AZD6738] + Nc1ccn([C@@H]2O[C@H](CO)[C@@H](O)C2(F)F)c(=O)n1 [Gemcitabine] (first compound max 10 µM, 7x7, partner max 0.3 µM) |  | 0.0431 |  | 0.102 | -0.0777 | -0.0278 |  | 0.0228 |  |  | -0.081 |  | -0.0244 |  |  |  | 0.0191 |  | 0.0003 | 0.0048 |
| C[C@@H](Nc1cc(F)cc(F)c1)c1cc(C(=O)N(C)C)cc2c(=O)cc(N3CCOCC3)oc12 [AZD8186] + C1CN(CCC1(C(=O)N[C@@H](CCO)C2=CC=C(C=C2)Cl)N)C3=NC=NC4=C3C=CN4 [AZD5363] (first compound max 10 µM, 7x7, partner max 10 µM) |  | -0.0338 |  | -0.0348 | -0.0797 | -0.0078 |  | 0.0106 |  |  | 0 |  | -0.0712 |  |  |  | -0.0629 |  | 0.04 | 0.0309 |
| C[C@@H]1COCCN1c1cc(C2([S@](C)(=N)=O)CC2)nc(-c2ccnc3[nH]ccc23)n1 [AZD6738] + C1CC(C1)(C(=O)[O-])C(=O)[O-].N.N.[Pt+2] [Carboplatin] (first compound max 10 µM, 7x7, partner max 10 µM) |  | -0.0209 |  | -0.0417 | -0.102 | -0.0536 |  | -0.0453 |  |  | -0.0132 |  | -0.0682 |  |  |  | -0.0954 |  | -0.034 | 0.0025 |
| Cc1c2c(nn1C)CSCc1cc(n(C)n1)CSc1cc(c3ccccc3c1)OCCCc1c(C(=O)O)n(C)c3c-2c(Cl)ccc13 [AZD5991] + Nc1ccn([C@@H]2O[C@H](CO)[C@@H](O)C2(F)F)c(=O)n1 [Gemcitabine] (first compound max 1 µM, 7x7, partner max 0.3 µM) |  | -0.0312 |  | 0.08 | -0.0451 | -0.0234 |  | 0.0143 |  |  | -0.0123 |  | -0.0643 |  |  |  | -0.0251 |  | -0.0455 | 0.0042 |
| C[C@@H](Oc1cc(-c2cnn(C3CCNCC3)c2)cnc1N)c1c(Cl)ccc(F)c1Cl [Crizotinib] + CC1=C(C(=CC=C1)Cl)NC(=O)C2=CN=C(S2)NC3=CC(=NC(=N3)C)N4CCN(CC4)CCO [Dasatinib] (first compound max 10 µM, 7x7, partner max 2 µM) |  | -0.0441 |  | 0.0932 | -0.0411 | -0.074 |  | 0.107 |  |  | 0.0101 |  | -0.0683 |  |  |  | -0.0973 |  | 0.0041 | -0.0368 |
| O=C(c1cc(Cc2n[nH]c(=O)c3ccccc23)ccc1F)N1CCN(C(=O)C2CC2)CC1 [Olaparib] + Cc1c2c(nn1C)CSCc1cc(n(C)n1)CSc1cc(c3ccccc3c1)OCCCc1c(C(=O)O)n(C)c3c-2c(Cl)ccc13 [AZD5991] (first compound max 10 µM, 7x7, partner max 1 µM) |  | -0.0215 |  | -0.0401 | -0.0744 | -0.0818 |  | -0.0298 |  |  | 0.0236 |  | -0.0554 |  |  |  | -0.0452 |  | -0.0218 | -0.0124 |
